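How tested: cells in 96-well plates exposed to compound for 48 hours at five concentrations. GI50: concentration for 50% inhibition of growth.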 The source made the active and inactive calls. Rule as the data show it: active = GI50 up to about 1.1 µM and inactive = higher.
How the values were obtained:
Assay in all cases: DTP human tumour cell line panel, 48 h
SNB-78 = tested on: SNB-78
DLD-1 = tested on: DLD-1
DMS-114 = tested on: DMS-114
KM-20L2 = tested on: KM-20L2
M19-MEL = tested on: M19-MEL
LXFL 529 = tested on: LXFL 529
HOP-18 = tested on: HOP-18
RXF 631 = tested on: RXF 631
XF498 = tested on: XF498

Measured: GI50

COC(=O)C(C(=O)C(=O)Nc1ccc(C)cc1C)c1csc(-n2nc(-c3ccccc3)cc2-c2ccccc2)n1 (centres undefined)
inactive: SNB-78 > 100 µM | DLD-1 > 100 µM | DMS-114 23.8 µM | KM-20L2 57.5 µM | M19-MEL > 100 µM | LXFL 529 > 100 µM | HOP-18 40.4 µM | RXF 631 > 100 µM | XF498 > 100 µM
